For the assay, the system named is Nrf2 transcriptional activity (pARE-Luc reporter) in HepG2 cells. As to the kind of experiment: In vitro Nrf2 transcriptional activity measurement by ARE-dependent reporter assay in HepG2 cell. It counts as cell-based, human. As to conditions: Homo sapiens; HepG2 cells transfected with pARE-Luc, 4 hours at 37° C.; luciferase activity of Example 1-54 or Example 17-23 at 3.75 μM defined as 100%. The method, then: Test Example 1: In Vitro Nrf2 Transcriptional Activity Measurement by ARE-Dependent Reporter Assay in HepG2 Cell
A human liver cancer-derived cell line HepG2 was transfected with pGL4.37 vector (pARE-Luc, Promega Corp.) and incubated overnight at 37° C. in a humidified atmosphere containing 5% CO2. The cells were dissociated by trypsin treatment, inoculated to a 384-well plate supplemented with a test compound, and incubated at 37° C. for 4 hours. Then, Bright-Glo Reagent (Promega Corp.) was added to the plate, and luciferase activity was measured with Envision plate reader.
Luciferase activity obtained through the action of the compound of Example 1-54 or Example 17-23 at a concentration of 3.75 μM was defined as 100%. The luciferase activity of each well was converted to a response rate (%). The dose-response curve of the compound of each Example was prepared to calculate a 50% effective concentration (EC50).
A general note: In a reporter assay the amount or activity of a reporter protein is the signal.
`O=C(O)c1cc(F)c(-c2cccc3c2OCN(C(=O)c2c(Cl)cc(N4CC(O)(c5ccccc5)C4)cc2Cl)C3)cc1N1C2CCC1COC2` [Compound 1-16, 4-[3-[2,6-Dichloro-4-(3-hydroxy-3-phenylazetidin-1-yl)benzoyl]-2,4-dihydro-1,3-benzoxazin-8-yl]-5-fluoro-2-(3-oxa-8-azabicyclo[3.2.1]octan-8-yl)benzoic acid] returned an EC50 of 11 nM.
Compound `O=C(O)c1cc(F)c(-c2cccc3c2OCN(C(=O)c2c(Cl)cc(N4CC(O)C4)cc2Cl)C3)cc1N1C2CCC1COC2` [Compound 1-17, 4-[3-[2,6-Dichloro-4-(3-hydroxyazetidin-1-yl)benzoyl]-2,4-dihydro-1,3-benzoxazin-8-yl]-5-fluoro-2-(3-oxa-8-azabicyclo[3.2.1]octan-8-yl)benzoic acid] displayed an EC50 of 19 nM.
The value for `O=C(O)c1cc(F)c(-c2cccc3c2OCN(C(=O)c2c(Cl)cc(N4CC(F)(F)C4)cc2Cl)C3)cc1N1C2CCC1COC2` [Compound 1-19, 4-[3-[2,6-Dichloro-4-(3,3-difluoroazetidin-1-yl)benzoyl]-2,4-dihydro-1,3-benzoxazin-8-yl]-5-fluoro-2-(3-oxa-8-azabicyclo[3.2.1]octan-8-yl)benzoic acid] was 6.3 nM.
Next, `O=C(O)c1cc(F)c(-c2cccc3c2OCN(C(=O)c2c(Cl)cc(N4CC(F)C4)cc2Cl)C3)cc1N1C2CCC1COC2` [Compound 1-20, 4-[3-[2,6-Dichloro-4-(3-fluoroazetidin-1-yl)benzoyl]-2,4-dihydro-1,3-benzoxazin-8-yl]-5-fluoro-2-(3-oxa-8-azabicyclo[3.2.1]octan-8-yl)benzoic acid]: 3.2 nM.
The value for `CO[C@@H]1COC2(C1)CN(c1cc(Cl)c(C(=O)N3COc4c(cccc4-c4cc(N5C6CCC5COC6)c(C(=O)O)cc4F)C3)c(Cl)c1)C2` [Compound 1-22, 4-[3-[2,6-Dichloro-4-[(7S)-7-methoxy-5-oxa-2-azaspiro[3.4]octan-2-yl]benzoyl]-2,4-dihydro-1,3-benzoxazin-8-yl]-5-fluoro-2-(3-oxa-8-azabicyclo[3.2.1]octan-8-yl)benzoic acid] was 2.1 nM; that for `CO[C@H]1COC2(C1)CN(c1cc(Cl)c(C(=O)N3COc4c(cccc4-c4cc(N5C6CCC5COC6)c(C(=O)O)cc4F)C3)c(Cl)c1)C2` [Compound 1-23, 4-[3-[2,6-Dichloro-4-[(7R)-7-methoxy-5-oxa-2-azaspiro[3.4]octan-2-yl]benzoyl]-2,4-dihydro-1,3-benzoxazin-8-yl]-5-fluoro-2-(3-oxa-8-azabicyclo[3.2.1]octan-8-yl)benzoic acid] was 1.9 nM; that for `CO[C@H]1C[C@@]2(CN(c3cc(Cl)c(C(=O)N4COc5c(cccc5-c5cc(N6C7CCC6COC7)c(C(=O)O)cc5F)C4)c(Cl)c3)[C@@H]2C)C1` [Compound 1-24, 4-[3-[2,6-Dichloro-4-[(1R,4r,6R)-6-methoxy-1-methyl-2-azaspiro[3.3]heptan-2-yl]benzoyl]-2,4-dihydro-1,3-benzoxazin-8-yl]-5-fluoro-2-(3-oxa-8-azabicyclo[3.2.1]octan-8-yl)benzoic acid] was 1.4 nM.
Compound `CO[C@H]1C[C@@]2(CN(c3cc(Cl)c(C(=O)N4COc5c(cccc5-c5cc(N6C7CCC6COC7)c(C(=O)O)cc5F)C4)c(Cl)c3)[C@H]2C)C1` [Compound 1-25, 4-[3-[2,6-Dichloro-4-[(1S,4r,6S)-6-methoxy-1-methyl-2-azaspiro[3.3]heptan-2-yl]benzoyl]-2,4-dihydro-1,3-benzoxazin-8-yl]-5-fluoro-2-(3-oxa-8-azabicyclo[3.2.1]octan-8-yl)benzoic acid] gave an EC50 of 1.5 nM.
Next, `CO[C@H]1C[C@]2(CN(c3cc(Cl)c(C(=O)N4COc5c(cccc5-c5cc(N6C7CCC6COC7)c(C(=O)O)cc5F)C4)c(Cl)c3)[C@@H]2C)C1` [Compound 1-26, 4-[3-[2,6-Dichloro-4-[(1R,4s,6S)-6-methoxy-1-methyl-2-azaspiro[3.3]heptan-2-yl]benzoyl]-2,4-dihydro-1,3-benzoxazin-8-yl]-5-fluoro-2-(3-oxa-8-azabicyclo[3.2.1]octan-8-yl)benzoic acid]: 1.4 nM; `CO[C@H]1C[C@]2(CN(c3cc(Cl)c(C(=O)N4COc5c(cccc5-c5cc(N6C7CCC6COC7)c(C(=O)O)cc5F)C4)c(Cl)c3)[C@H]2C)C1` [Compound 1-27, 4-[3-[2,6-Dichloro-4-[(1S,4s,6R)-6-methoxy-1-methyl-2-azaspiro[3.3]heptan-2-yl]benzoyl]-2,4-dihydro-1,3-benzoxazin-8-yl]-5-fluoro-2-(3-oxa-8-azabicyclo[3.2.1]octan-8-yl)benzoic acid]: 2.9 nM.
Next, `CO[C@@H]1CCOC12CN(c1cc(Cl)c(C(=O)N3COc4c(cccc4-c4cc(N5C6CCC5COC6)c(C(=O)O)cc4F)C3)c(Cl)c1)C2` [Compound 1-30, 4-[3-[2,6-Dichloro-4-[(8R)-8-methoxy-5-oxa-2-azaspiro[3.4]octan-2-yl]benzoyl]-2,4-dihydro-1,3-benzoxazin-8-yl]-5-fluoro-2-(3-oxa-8-azabicyclo[3.2.1]octan-8-yl)benzoic acid]: 2.6 nM; `CO[C@H]1CCOC12CN(c1cc(Cl)c(C(=O)N3COc4c(cccc4-c4cc(N5C6CCC5COC6)c(C(=O)O)cc4F)C3)c(Cl)c1)C2` [Compound 1-31, 4-[3-[2,6-Dichloro-4-[(8S)-8-methoxy-5-oxa-2-azaspiro[3.4]octan-2-yl]benzoyl]-2,4-dihydro-1,3-benzoxazin-8-yl]-5-fluoro-2-(3-oxa-8-azabicyclo[3.2.1]octan-8-yl)benzoic acid]: 1.9 nM.
The value for `O=C(O)c1cc(F)c(-c2cccc3c2OCN(C(=O)c2c(Cl)cc(N4CCNC(C(F)(F)F)C4)cc2Cl)C3)cc1N1C2CCC1COC2` (stereo not shown) [Compound 1-32, 4-[3-[2,6-Dichloro-4-[3-(trifluoromethyl)piperazin-1-yl]benzoyl]-2,4-dihydro-1,3-benzoxazin-8-yl]-5-fluoro-2-(3-oxa-8-azabicyclo[3.2.1]octan-8-yl)benzoic acid] was 1.5 nM.
Regarding `CN1CCN(c2cc(Cl)c(C(=O)N3COc4c(cccc4-c4cc(N5C6CCC5COC6)c(C(=O)O)cc4F)C3)c(Cl)c2)CC12COC2` [Compound 1-34, 4-[3-[2,6-Dichloro-4-(5-methyl-2-oxa-5,8-diazaspiro[3.5]nonan-8-yl)benzoyl]-2,4-dihydro-1,3-benzoxazin-8-yl]-5-fluoro-2-(3-oxa-8-azabicyclo[3.2.1]octan-8-yl)benzoic acid], a half-maximal response (EC50) required 39 nM.
Next, `O=C(O)c1cc(F)c(-c2cccc3c2OCN(C(=O)c2c(Cl)cc(N4CCN(CC(F)(F)F)CC4)cc2Cl)C3)cc1N1C2CCC1COC2` [Compound 1-35, 4-[3-[2,6-Dichloro-4-[4-(2,2,2-trifluoroethyl)piperazin-1-yl]benzoyl]-2,4-dihydro-1,3-benzoxazin-8-yl]-5-fluoro-2-(3-oxa-8-azabicyclo[3.2.1]octan-8-yl)benzoic acid]: 5.8 nM; `CN1CC2CCCC(C1)N2c1cc(Cl)c(C(=O)N2COc3c(cccc3-c3cc(N4C5CCC4COC5)c(C(=O)O)cc3F)C2)c(Cl)c1` [Compound 1-36, 4-[3-[2,6-Dichloro-4-(3-methyl-3,9-diazabicyclo[3.3.1]nonan-9-yl)benzoyl]-2,4-dihydro-1,3-benzoxazin-8-yl]-5-fluoro-2-(3-oxa-8-azabicyclo[3.2.1]octan-8-yl)benzoic acid]: 1.8 nM; `O=C(O)c1cc(F)c(-c2cccc3c2OCN(C(=O)c2c(Cl)cc(N4CC5CCC(C4)O5)cc2Cl)C3)cc1N1C2CCC1COC2` [Compound 1-37, 4-[3-[2,6-Dichloro-4-(8-oxa-3-azabicyclo[3.2.1]octan-3-yl)benzoyl]-2,4-dihydro-1,3-benzoxazin-8-yl]-5-fluoro-2-(3-oxa-8-azabicyclo[3.2.1]octan-8-yl)benzoic acid]: 2.1 nM.
For the compound `O=C(O)c1cc(F)c(-c2cccc3c2OCN(C(=O)c2c(Cl)cc(N4CCOC5CC54)cc2Cl)C3)cc1N1C2CCC1COC2` (stereo not shown) [Compound 1-38, 4-[3-[2,6-Dichloro-4-(2-oxa-5-azabicyclo[4.1.0]heptan-5-yl)benzoyl]-2,4-dihydro-1,3-benzoxazin-8-yl]-5-fluoro-2-(3-oxa-8-azabicyclo[3.2.1]octan-8-yl)benzoic acid], the midpoint of the response, the EC50, lay at 1.8 nM.
The value for `O=C(O)c1cc(F)c(-c2cccc3c2OCN(C(=O)c2c(Cl)cc(N4CCn5nccc5C4)cc2Cl)C3)cc1N1C2CCC1COC2` [Compound 1-39] was 18 nM; that for `COC1CN(c2cc(Cl)c(C(=O)N3COc4c(cccc4-c4cc(N5C6CCC5COC6)c(C(=O)O)cc4F)C3)c(Cl)c2)CCO1` (stereo not shown) [Compound 1-40, 4-[3-[2,6-Dichloro-4-(2-methoxymorpholin-4-yl)benzoyl]-2,4-dihydro-1,3-benzoxazin-8-yl]-5-fluoro-2-(3-oxa-8-azabicyclo[3.2.1]octan-8-yl)benzoic acid] was 3 nM; that for `O=C(O)c1cc(F)c(-c2cccc3c2OCN(C(=O)c2c(Cl)cc(N4C5CCC4COC5)cc2Cl)C3)cc1N1C2CCC1COC2` [Compound 1-41, 4-[3-[2,6-Dichloro-4-(3-oxa-8-azabicyclo[3.2.1]octan-8-yl)benzoyl]-2,4-dihydro-1,3-benzoxazin-8-yl]-5-fluoro-2-(3-oxa-8-azabicyclo[3.2.1]octan-8-yl)benzoic acid] was 2 nM.
Compound `C[C@@H]1COCCN1c1cc(Cl)c(C(=O)N2COc3c(cccc3-c3cc(N4C5CCC4COC5)c(C(=O)O)cc3F)C2)c(Cl)c1` [Compound 1-42, 4-[3-[2,6-Dichloro-4-[(3R)-3-methylmorpholin-4-yl]benzoyl]-2,4-dihydro-1,3-benzoxazin-8-yl]-5-fluoro-2-(3-oxa-8-azabicyclo[3.2.1]octan-8-yl)benzoic acid] returned an EC50 of 2.6 nM.

By EC50 is commonly meant the concentration at which the effect is half-maximal. A high value points to a need for much substance.

The record behind these values is US20250171457A1, “NITROGEN-CONTAINING HETEROCYCLIC COMPOUND HAVING NRF2 ACTIVATION EFFECT” (CHUGAI SEIYAKU KABUSHIKI KAISHA, priority 2022, published 2025).
